Activity calls are given as the source filed them. No cut-off for these calls is given here.

Here are results for 16 compounds from ChEMBL document CHEMBL4819121, “Fused chromeno and quinolino[1,8]naphthyridines: Synthesis and biological evaluation as topoisomerase I inhibitors and antiproliferative agents” (Bioorg Med Chem, 2021).

The subject of one assay is MRC5. As to the kind of experiment: Antiproliferative activity against human MRC5 cells assessed as cell growth inhibition measured after 48 hrs by CCK-8 assay. Type of assay: cell-based. Particulars: MRC5, 48 h. In general terms: Formazan colour is commonly taken as a measure of viable cells.
Assay [1] has as its target T1, DNA topoisomerase 1 (Homo sapiens) (UniProt P11387).
T1 sequence (whole entry): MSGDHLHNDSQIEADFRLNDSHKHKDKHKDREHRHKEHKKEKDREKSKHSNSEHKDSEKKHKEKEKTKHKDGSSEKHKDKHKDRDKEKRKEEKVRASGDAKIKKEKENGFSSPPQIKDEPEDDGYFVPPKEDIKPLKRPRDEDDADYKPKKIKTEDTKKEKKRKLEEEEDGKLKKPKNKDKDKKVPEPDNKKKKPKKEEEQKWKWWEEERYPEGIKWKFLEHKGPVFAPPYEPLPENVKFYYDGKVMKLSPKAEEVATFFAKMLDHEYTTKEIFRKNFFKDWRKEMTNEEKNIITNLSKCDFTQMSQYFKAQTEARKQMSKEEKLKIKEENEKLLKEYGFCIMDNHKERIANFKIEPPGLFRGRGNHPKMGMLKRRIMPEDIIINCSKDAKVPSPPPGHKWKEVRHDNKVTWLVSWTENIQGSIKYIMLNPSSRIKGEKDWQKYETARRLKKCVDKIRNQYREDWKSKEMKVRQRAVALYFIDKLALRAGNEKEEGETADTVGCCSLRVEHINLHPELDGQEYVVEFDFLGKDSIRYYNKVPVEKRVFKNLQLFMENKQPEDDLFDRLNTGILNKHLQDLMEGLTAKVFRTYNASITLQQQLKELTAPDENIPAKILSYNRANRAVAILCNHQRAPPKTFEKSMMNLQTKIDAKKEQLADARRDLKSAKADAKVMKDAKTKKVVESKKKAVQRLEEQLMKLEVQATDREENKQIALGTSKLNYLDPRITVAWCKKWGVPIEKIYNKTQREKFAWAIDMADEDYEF
As to the kind of experiment: Poison activity at recombinant human topoisomerase 1 expressed in yeast TopI null strain RS190 assessed as increase in nicked plasmid DNA at 100 uM using supercoiled pUC18 plasmid DNA as substrate incubated for 15 to 180 secs by Ethidium bromide staining based agarose gel electrophoresis analysis. Particulars: time 15-180 sec.

Assay [2] concerns the target T1, DNA topoisomerase 1 (Homo sapiens). The experiment in a line: Inhibition of recombinant human topoisomerase 1 expressed in yeast TopI null strain RS190 at 100 uM using negatively supercoiled pUC18 plasmid DNA as substrate incubated for 15 secs by agarose gel electrophoresis method. Particulars: time 15.0 sec.
The subject of the next assay is SK-OV-3. The experiment in a line: Antiproliferative activity against human SK-OV-3 cells assessed as cell growth inhibition measured after 48 hrs by CCK-8 assay. Type of assay: functional, cell-based. Particulars: SK-OV-3, 48 h.
In another assay the test system is A549. The experiment in a line: Antiproliferative activity against human A549 cells assessed as cell growth inhibition measured after 48 hrs by CCK-8 assay. Type of assay: functional, cell-based. Particulars: A549, 48 h.
For assay [3], the target named is T1, DNA topoisomerase 1 (Homo sapiens). The experiment in a line: Inhibition of recombinant human topoisomerase 1 expressed in yeast TopI null strain RS190 at 100 uM using negatively supercoiled pUC18 plasmid DNA as substrate incubated for 1 min by agarose gel electrophoresis method.
Assay [4] has the same target. As to the kind of experiment: Inhibition of recombinant human topoisomerase 1 expressed in yeast TopI null strain RS190 at 100 uM using negatively supercoiled pUC18 plasmid DNA as substrate incubated for 3 min by agarose gel electrophoresis method.

For orientation: IC50 means the midpoint of a concentration-inhibition curve. By inhibition is commonly meant the share of the control response that was lost under treatment. Regarding `Cc1ccc(S(=O)(=O)N2Cc3c(nc4ncc(Br)cc4c3-c3ccccc3)-c3ccccc32)cc1`, the 50% inhibitory concentration (IC50) in the assay with MRC5 is > 50 µM; in the assay on SK-OV-3, 12.2 µM; in the assay on A549 it was 10.5 µM. Besides, the result in assay [1] was Active. The inhibition in assay [2] worked out at 98%; in assay [3], 98%; in assay [4] it was 95%.

In the case of `CC[C@@]1(O)C(=O)OCc2c1cc1n(c2=O)Cc2cc3ccccc3nc2-1`, in assay [1], the result was Active.

Take `c1ccc(-c2c3c(nc4ncccc24)-c2ccccc2OC3)cc1`: the IC50 in the assay with MRC5, with SK-OV-3 and in the assay on A549 was > 50 µM in each case. Further, the results for the inhibition in assay [2], in assay [3] and in assay [4] were 10%, 9% and 2%, respectively.

As to `Cc1ccc(S(=O)(=O)N2C[C@H]3[C@H](c4ccccc4)c4cccnc4N[C@@H]3c3ccccc32)cc1`, the IC50 is > 50 µM in the assay with MRC5, 8.21 µM in the assay on SK-OV-3 and 6.3 µM in the assay on A549. For the same compound, the result in assay [1] was Active. Further, the results for the inhibition in assay [2], in assay [3] and in assay [4] were 91%, 89% and 85%, respectively.

With `COc1ccc(-c2c3c(nc4ncccc24)-c2ccccc2OC3)cc1`, the IC50 in the assay with MRC5, in the assay on SK-OV-3 and with A549 was > 50 µM throughout. Moreover, the inhibition in assay [2] was 11%; in assay [3], 11%; in assay [4], 6%.

For the compound `O=c1oc2ccc(F)cc2c2nc3ncccc3c(-c3ccccc3)c12`, the IC50 in the assay with MRC5, in the assay on SK-OV-3 and with A549 was > 50 µM throughout. The inhibition in assay [2] stood at 5%; in assay [3], 4%; in assay [4], 4%.

For the compound `c1ccc([C@@H]2c3cccnc3N[C@@H]3c4ccccc4OC[C@@H]23)cc1`, the figures for the IC50 in the assay with MRC5, in the assay on SK-OV-3 and with A549 were > 50 µM, 12.2 µM and 11.7 µM, respectively. The figures for the inhibition in assay [2], in assay [3] and in assay [4] were 61%, 60% and 5%, respectively.

Consider `O=c1oc2ccccc2c2nc3ncccc3c(-c3ccccc3)c12`, for which the IC50 in the assay on MRC5 was > 50 µM; with SK-OV-3 it was 1.78 µM; in the assay with A549 it was 1.23 µM. For the same compound, the inhibition worked out at 75% in assay [2], 75% in assay [3] and 51% in assay [4].

With `Cc1ccc2c(c1)-c1nc3ncccc3c(-c3ccccc3)c1CO2`, the IC50 in the assay with MRC5, in the assay on SK-OV-3 and in the assay with A549 was > 50 µM throughout. Moreover, the inhibition is 26% in assay [2], 1% in assay [3] and 1% in assay [4].

As for `Fc1ccc2c(c1)-c1nc3ncccc3c(-c3ccccc3)c1CO2`, the half-maximal inhibitory concentration (IC50) in the assay with MRC5 is > 50 µM; in the assay with SK-OV-3, 38.1 µM; in the assay with A549, 31.2 µM. In addition, the inhibition is 41% in assay [2], 40% in assay [3] and 11% in assay [4].

`Cc1ccc2c(c1)[C@H]1Nc3ncccc3[C@@H](c3ccccc3)[C@@H]1CO2`: the IC50 in the assay with MRC5, with SK-OV-3 and with A549 was > 50 µM throughout. For the same compound, the inhibition in assay [2] is 21%; in assay [3], 15%; in assay [4], 1%.

For `O=c1oc2ccccc2c2nc3ncc(Br)cc3c(-c3ccccc3)c12`, the IC50 with MRC5, in the assay with SK-OV-3 and in the assay with A549 was > 50 µM in each case. For the same compound, the inhibition was determined as 21% in assay [2], 15% in assay [3] and 5% in assay [4].

Regarding `O=C1Oc2ccccc2[C@H]2Nc3ncc(Br)cc3[C@@H](c3ccccc3)[C@H]12`, the IC50 with MRC5, with SK-OV-3 and with A549 was > 50 µM each time. For the same compound, the inhibition was determined as 11% in assay [2], 10% in assay [3] and 1% in assay [4].

`Fc1ccc2c(c1)[C@H]1Nc3ncccc3[C@@H](c3ccccc3)[C@@H]1CO2`: the IC50 with MRC5, in the assay with SK-OV-3 and in the assay on A549 was > 50 µM throughout. Further, the inhibition in assay [2] turned out to be 14%; in assay [3] it was 14%; in assay [4], 1%.

Consider `Cc1ccc(S(=O)(=O)N2Cc3c(nc4ncccc4c3-c3ccccc3)-c3ccccc32)cc1`, for which the IC50 in the assay with MRC5 was > 50 µM; with SK-OV-3, 16.9 µM; with A549 it was 17.9 µM. Also, the inhibition was found to be 95% in assay [2], 93% in assay [3] and 92% in assay [4].

For `O=C1Oc2ccc(F)cc2[C@H]2Nc3ncccc3[C@@H](c3ccccc3)[C@H]12`, the IC50 in the assay with MRC5, in the assay with SK-OV-3 and with A549 was > 50 µM each time. The inhibition in assay [2] amounted to 5%; in assay [3], 5%; in assay [4], 4%.
